Earlier results on 12 compounds are cited in patent US7348299B2, “Cleansing bar with distributed polymeric network providing enhanced delivery” (Conopco, Inc., priority 2005, dated 2008).

The conditions of data set [1]: single component of 1:1 model perfume; first/second component.
The conditions of data set [2]: single component of 1:1 model perfume; no unit in table, K in Atm.

In the case of `CCC(C)(CCCC(C)C)OC(C)=O` (stereo not shown) [Tetrahydrolinalylacetate], the “φo/w (octanol/water partition coefficient)” value in data set [1] is 31,600. In addition, the “K (volatility constant)” value in data set [2] is listed as 5.5.
Regarding `CC(CC=O)CCCC(C)(C)O` (stereo not shown) [hydroxycitonellal], the “φo/w (octanol/water partition coefficient)” value in data set [1] was 34.7. In addition, in data set [2], the “K (volatility constant)” value is 0.05.
In the case of `C=C(C)[C@H]1CC=C(C)CC1` [Limonene], the “K (volatility constant)” value in data set [2] is recorded as 98.
For the compound `C=CC(C)CCC=C(C)C` (stereo not shown) [citronellene], in data set [1], the “φo/w (octanol/water partition coefficient)” value was 43,651. The “K (volatility constant)” value in data set [2] is recorded as 120.
As to `CC1=CCC2CC1C2(C)C` (stereo not drawn) [alpha-pinene], the “φo/w (octanol/water partition coefficient)” value in data set [1] is 29648. For the same compound, in data set [2], the “K (volatility constant)” value is 280.
Turning to `Cc1ccc(C(C)C)cc1` [p-cymene], the “φo/w (octanol/water partition coefficient)” value in data set [1] is listed as 31,000. The “K (volatility constant)” value in data set [2] is 265.
With `OCCc1ccccc1` [Phenylethylalcohol], in data set [1], the “φo/w (octanol/water partition coefficient)” value is given as 22.9. In addition, in data set [2], the “K (volatility constant)” value is given as 0.1.
As to `CC=O` [acetaldehyde], in data set [1], the “φo/w (octanol/water partition coefficient)” value is listed as 167. Moreover, the “K (volatility constant)” value in data set [2] is reported as 0.008.
Regarding `CC(=O)OCc1ccccc1` [Benzyl acetate], the “φo/w (octanol/water partition coefficient)” value in data set [1] was 81. The “K (volatility constant)” value in data set [2] is 0.32.
Take `CC(C=O)Cc1ccc(C(C)(C)C)cc1` (stereo not shown) [lilial]: the “φo/w (octanol/water partition coefficient)” value in data set [1] is listed as 32,360. In data set [2], the “K (volatility constant)” value is given as 0.42.
With Methyl ionone, the “K (volatility constant)” value in data set [2] is given as 5.2.
Consider `CC(=O)OCCC(C)CCC=C(C)C` (stereo not shown) [citronellyl acetate], for which the “φo/w (octanol/water partition coefficient)” value in data set [1] is on record as 19,054. In addition, the “K (volatility constant)” value in data set [2] is reported as 6.
